# Experimental data published in US10182994B2, “Nanoparticulate complex of nicotine and cerium oxide and use thereof” (priority 2014, dated 2019).
# Tested on: neurons that have low expression of ATG7
# Conditions: pretreatment of neurons with lentiviral shRNA knock-down of ATG7; neurotoxin MPP+
# From the text: A lentiviral shRNA was used to knock-down the expression of ATG7, a component of the autophagy system.
smiles,measurement,value
CN1CCCC1c1cccnc1 (stereo not shown) [nicotine],prevention of MPP+ induced cellular damage,prevent MPP+ induced cellular damage
